In ChEMBL document CHEMBL1201862, “PubChem BioAssay data set” (2004):
Active and inactive are the calls of the source.

What was measured:
[1] = biological target: T1, Tyrosine-protein phosphatase non-receptor type 7 (Homo sapiens, UniProt P35236); format: functional
T1 sequence (P35236 whole entry): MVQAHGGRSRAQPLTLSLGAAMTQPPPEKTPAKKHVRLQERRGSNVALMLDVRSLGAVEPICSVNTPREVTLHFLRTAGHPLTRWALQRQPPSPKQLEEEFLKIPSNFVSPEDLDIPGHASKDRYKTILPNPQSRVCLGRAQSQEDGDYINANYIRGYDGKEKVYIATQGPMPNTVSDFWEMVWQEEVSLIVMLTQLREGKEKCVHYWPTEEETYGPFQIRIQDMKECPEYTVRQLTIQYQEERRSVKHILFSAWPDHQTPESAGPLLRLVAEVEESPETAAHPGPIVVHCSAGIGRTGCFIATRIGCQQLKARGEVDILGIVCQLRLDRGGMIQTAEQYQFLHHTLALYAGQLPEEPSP

[2] = biological target: T2, Tyrosine-protein phosphatase non-receptor type 22 (Homo sapiens, UniProt Q9Y2R2); format: functional
T2 sequence (Q9Y2R2 whole entry): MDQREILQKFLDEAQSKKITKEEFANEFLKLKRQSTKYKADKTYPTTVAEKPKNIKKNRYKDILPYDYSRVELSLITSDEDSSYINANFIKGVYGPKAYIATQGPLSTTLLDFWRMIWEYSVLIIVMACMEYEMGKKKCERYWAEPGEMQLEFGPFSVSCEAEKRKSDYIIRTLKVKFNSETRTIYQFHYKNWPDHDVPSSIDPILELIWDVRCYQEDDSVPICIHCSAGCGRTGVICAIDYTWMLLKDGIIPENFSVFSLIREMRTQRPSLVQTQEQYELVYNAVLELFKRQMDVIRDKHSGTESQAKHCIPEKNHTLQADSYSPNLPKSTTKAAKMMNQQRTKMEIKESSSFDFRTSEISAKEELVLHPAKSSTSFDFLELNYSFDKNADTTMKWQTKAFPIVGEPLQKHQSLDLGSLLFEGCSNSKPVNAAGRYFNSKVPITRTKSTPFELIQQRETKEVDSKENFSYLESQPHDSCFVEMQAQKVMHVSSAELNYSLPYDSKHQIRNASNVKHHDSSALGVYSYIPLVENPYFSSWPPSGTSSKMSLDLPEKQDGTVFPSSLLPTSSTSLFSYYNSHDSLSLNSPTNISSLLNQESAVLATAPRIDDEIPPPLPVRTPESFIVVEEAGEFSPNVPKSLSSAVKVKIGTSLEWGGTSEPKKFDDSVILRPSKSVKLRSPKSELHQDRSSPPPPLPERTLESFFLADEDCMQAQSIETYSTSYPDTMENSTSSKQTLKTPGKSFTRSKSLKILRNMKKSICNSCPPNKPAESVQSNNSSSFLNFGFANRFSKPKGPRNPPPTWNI

[3] = biological target: T2, Tyrosine-protein phosphatase non-receptor type 22; format: functional; remark: listed apart in the source
[4] = biological target: T3, Voltage-gated N-type calcium channel alpha-1B subunit/Amyloid beta A4 precursor protein-binding family A member 1 (Homo sapiens, UniProt Q00975+Q02410); format: protein assay
[5] = biological target: T3, Voltage-gated N-type calcium channel alpha-1B subunit/Amyloid beta A4 precursor protein-binding family A member 1; format: protein assay; remark: listed apart in the source
[6] = biological target: G-protein coupled receptor 55 (Homo sapiens, UniProt Q9Y2T6); experiment: inhibition of LPI-stimulated GPR55 beta-arrestin translocation – imaging, U2OS, beta-arrestin-GFP, LPI agonist, primary screen (AID 2013); format: functional;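 also: antagonist potency measured as reduced agonist-driven arrestin aggregation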
[7] = system: Streptococcus sp. 'group A'; experiment: Streptococcus pyogenes SK(-)GAS viability under kanamycin – luminescence, BacTiterGlo, confirmation, counter-screen for streptokinase expression inhibitor project, dose response (AID 1900); format: functional, organism-based
[8] = Trypanosoma cruzi growth suppression in host cells – NIH3T3 host cells, beta-gal luminescence, confirmation (AID 2044); format: functional, cell-based;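 also: intracellular parasites grown in NIH/3T3 mouse fibroblasts as host cells; luminescent beta-galactosidase reporter signal from transgenic T. cruzi replicating inside host cells; inhibitors lower the luminescence signal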
[9] = NIH3T3 cell viability loss – ATP luminescence, mouse fibroblasts, counter-screen, dose response (AID 2010); format: functional, cell-based;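 also: cells exposed to compound for about 90 hours before reading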
[10] = system: Streptococcus; experiment: GAS UMAA2166 growth inhibition – luminescence, BacTiterGlo, counter-screen for streptokinase expression inhibitor project, dose response (AID 1915); format: functional, organism-based;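 also: potency for reduction of bacterial viability or growth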
[11] = biological target: T4, Hexokinase HKDC1 (Homo sapiens, UniProt Q2TB90); experiment: activation of HKDC1 glucose phosphorylation – biochemical, W721R variant, dose response (AID 504730); format: functional
T4 sequence (Q2TB90 whole entry): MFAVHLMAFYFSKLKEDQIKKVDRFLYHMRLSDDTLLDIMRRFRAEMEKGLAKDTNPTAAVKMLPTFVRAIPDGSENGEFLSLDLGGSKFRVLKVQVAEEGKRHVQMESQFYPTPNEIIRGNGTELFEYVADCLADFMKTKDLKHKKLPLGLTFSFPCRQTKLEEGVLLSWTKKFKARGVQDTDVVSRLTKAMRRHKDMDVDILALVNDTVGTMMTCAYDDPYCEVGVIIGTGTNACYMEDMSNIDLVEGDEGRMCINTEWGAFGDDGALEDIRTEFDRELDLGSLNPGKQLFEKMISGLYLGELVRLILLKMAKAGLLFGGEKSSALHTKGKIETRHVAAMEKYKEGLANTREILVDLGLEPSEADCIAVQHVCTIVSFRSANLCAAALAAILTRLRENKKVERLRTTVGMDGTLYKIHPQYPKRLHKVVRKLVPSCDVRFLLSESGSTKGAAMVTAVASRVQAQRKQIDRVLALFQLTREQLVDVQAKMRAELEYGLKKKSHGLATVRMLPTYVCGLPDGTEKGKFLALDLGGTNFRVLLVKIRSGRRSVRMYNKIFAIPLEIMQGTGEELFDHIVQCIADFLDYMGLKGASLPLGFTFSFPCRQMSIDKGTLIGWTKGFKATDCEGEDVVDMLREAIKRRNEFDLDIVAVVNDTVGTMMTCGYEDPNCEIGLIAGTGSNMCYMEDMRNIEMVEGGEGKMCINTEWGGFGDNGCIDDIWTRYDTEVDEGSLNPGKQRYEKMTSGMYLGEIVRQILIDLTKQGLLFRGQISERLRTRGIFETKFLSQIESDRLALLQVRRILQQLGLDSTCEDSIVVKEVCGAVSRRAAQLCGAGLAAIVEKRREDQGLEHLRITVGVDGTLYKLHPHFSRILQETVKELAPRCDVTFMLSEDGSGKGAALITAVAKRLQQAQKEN

[12] = biological target: T5, Hexokinase-1 (Homo sapiens, UniProt P19367); experiment: HK1 enzyme activation by HKDC1 hits – biochemical, selectivity assay for HKDC1 activator project, dose response (AID 504762); format: functional
T5 sequence (P19367 whole entry): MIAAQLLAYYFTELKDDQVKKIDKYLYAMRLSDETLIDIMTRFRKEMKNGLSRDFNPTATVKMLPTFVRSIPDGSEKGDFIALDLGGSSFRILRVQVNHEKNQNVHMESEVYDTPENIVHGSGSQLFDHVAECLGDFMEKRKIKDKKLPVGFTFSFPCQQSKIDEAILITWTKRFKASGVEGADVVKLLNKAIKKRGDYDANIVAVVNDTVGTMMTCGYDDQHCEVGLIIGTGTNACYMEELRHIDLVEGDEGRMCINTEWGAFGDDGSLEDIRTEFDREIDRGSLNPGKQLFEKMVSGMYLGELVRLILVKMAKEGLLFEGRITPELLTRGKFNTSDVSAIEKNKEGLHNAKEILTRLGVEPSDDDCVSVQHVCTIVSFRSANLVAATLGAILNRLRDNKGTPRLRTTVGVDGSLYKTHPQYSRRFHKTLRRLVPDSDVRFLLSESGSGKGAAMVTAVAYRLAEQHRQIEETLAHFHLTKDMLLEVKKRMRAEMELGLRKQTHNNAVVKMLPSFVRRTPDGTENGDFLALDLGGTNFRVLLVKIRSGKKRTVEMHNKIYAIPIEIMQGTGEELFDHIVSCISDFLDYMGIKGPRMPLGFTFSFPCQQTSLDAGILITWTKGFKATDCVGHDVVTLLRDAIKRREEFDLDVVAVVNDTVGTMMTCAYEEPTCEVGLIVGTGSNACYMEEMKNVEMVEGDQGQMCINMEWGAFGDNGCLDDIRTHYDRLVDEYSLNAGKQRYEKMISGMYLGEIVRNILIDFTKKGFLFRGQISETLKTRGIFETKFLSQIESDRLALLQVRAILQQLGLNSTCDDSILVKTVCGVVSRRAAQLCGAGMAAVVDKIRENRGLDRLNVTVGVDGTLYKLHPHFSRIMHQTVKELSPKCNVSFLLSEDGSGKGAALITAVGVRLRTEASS

[13] = biological target: Heat shock protein HSP 90-alpha (Homo sapiens, UniProt P07900); format: functional, organism-based
[14] = reduction of Shn3 3'UTR-driven luciferase in osteoblasts – cell-based, Clone20 osteoblasts, firefly luciferase, cherry-picked, dose response (AID 624132); format: functional;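 also: firefly luciferase luminescence from reporter carrying the Shn3 3'UTR in osteoblasts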
[15] = loss of viability in HepG2 cells – cell-based, CellTiter-Glo, cherry-picked, cytotoxicity control for Shn3 inhibitor project, dose response (AID 624134); format: functional
[16] = non-specific 3'UTR reporter inhibition in Clone20-Shn3RL – cell-based, Renilla luciferase, cherry-picked, counter-screen for Shn3 inhibitor project, dose response (AID 624133); format: functional
[17] = biological target: Luciferin 4-monooxygenase (Photinus pyralis, UniProt P08659); experiment: Counter Screen for Luciferase-based Assay Positives. [Related pubchem assays: 620, 618, 411 ]
[18] = system: HT-1080; experiment: HT1080 cell viability loss – fluorescence readout (AID 620); format: functional, cell-based; settings: Homo sapiens
[19] = biological target: Cytochrome P450 2D6 (Homo sapiens, UniProt P10635);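 also: CYP2D6 member of a cytochrome P450 panel assay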
[20] = biological target: Troponin, cardiac muscle (Homo sapiens, UniProt P19429+P45379+P63316); experiment: Fluorescence-based biochemical high throughput dose response assay for activators of the calcium sensitivity of cardiac Regulated Thin Filaments (RTF). [Related pubchem assays (depositor defined):AID493008, AID493018, AID504382, AID504383]; format: protein-complex assay
[21] = decrease of insulin promoter-GFP reporter – imaging, high-content screening, mouse beta cells (AID 1628); format: functional; settings: MIN6
[22] = MIN6 cell viability loss – mouse insulinoma, cytotoxicity control, dose response (AID 2122); format: functional;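 also: confirmatory high-throughput counterscreen run to flag cytotoxic compounds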
[23] = system: INS1; experiment: INS-1E survival protection against cytokine death – cell-based, luminescence, retest, dose response (AID 449756); format: functional; settings: Rattus norvegicus;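 also: cell death triggered by IL-1 beta plus TNF-alpha plus IFN-gamma mixture; protective hits raise ATP signal compared with cytokine alone wells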
[24] = biological target: T6, Bcl-2-related protein A1 (Mus musculus, UniProt Q07440); format: functional;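 also: confirmatory dose–response counterscreen on Bfl-1, used to check hits from a UBC13 polyubiquitin inhibitor campaign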
T6 sequence (Q07440 whole entry): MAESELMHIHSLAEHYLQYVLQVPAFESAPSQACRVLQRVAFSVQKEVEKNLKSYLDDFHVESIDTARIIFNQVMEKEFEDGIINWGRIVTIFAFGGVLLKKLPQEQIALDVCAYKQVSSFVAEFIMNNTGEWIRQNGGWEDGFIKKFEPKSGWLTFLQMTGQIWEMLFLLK

[25] = biological target: T7, Ubiquitin-conjugating enzyme E2 N (Homo sapiens, UniProt P61088); format: functional
T7 sequence (P61088 whole entry): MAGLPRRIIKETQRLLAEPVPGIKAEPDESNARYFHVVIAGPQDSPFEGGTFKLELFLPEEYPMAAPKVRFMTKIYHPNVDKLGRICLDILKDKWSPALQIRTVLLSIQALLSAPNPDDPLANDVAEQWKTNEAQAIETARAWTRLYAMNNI

[26] = biological target: T7, Ubiquitin-conjugating enzyme E2 N; format: functional; remark: listed apart in the source

Chain of G-protein coupled receptor 55 (Q9Y2T6 whole entry): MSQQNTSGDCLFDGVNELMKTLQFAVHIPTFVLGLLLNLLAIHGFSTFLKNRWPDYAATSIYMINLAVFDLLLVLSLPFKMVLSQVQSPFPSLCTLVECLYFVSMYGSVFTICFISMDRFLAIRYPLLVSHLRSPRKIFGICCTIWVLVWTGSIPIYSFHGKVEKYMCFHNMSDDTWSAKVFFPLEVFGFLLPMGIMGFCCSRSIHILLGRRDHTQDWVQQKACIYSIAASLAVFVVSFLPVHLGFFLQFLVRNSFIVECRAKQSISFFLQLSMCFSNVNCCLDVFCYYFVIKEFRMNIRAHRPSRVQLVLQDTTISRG
T3 sequence (Q00975 whole entry): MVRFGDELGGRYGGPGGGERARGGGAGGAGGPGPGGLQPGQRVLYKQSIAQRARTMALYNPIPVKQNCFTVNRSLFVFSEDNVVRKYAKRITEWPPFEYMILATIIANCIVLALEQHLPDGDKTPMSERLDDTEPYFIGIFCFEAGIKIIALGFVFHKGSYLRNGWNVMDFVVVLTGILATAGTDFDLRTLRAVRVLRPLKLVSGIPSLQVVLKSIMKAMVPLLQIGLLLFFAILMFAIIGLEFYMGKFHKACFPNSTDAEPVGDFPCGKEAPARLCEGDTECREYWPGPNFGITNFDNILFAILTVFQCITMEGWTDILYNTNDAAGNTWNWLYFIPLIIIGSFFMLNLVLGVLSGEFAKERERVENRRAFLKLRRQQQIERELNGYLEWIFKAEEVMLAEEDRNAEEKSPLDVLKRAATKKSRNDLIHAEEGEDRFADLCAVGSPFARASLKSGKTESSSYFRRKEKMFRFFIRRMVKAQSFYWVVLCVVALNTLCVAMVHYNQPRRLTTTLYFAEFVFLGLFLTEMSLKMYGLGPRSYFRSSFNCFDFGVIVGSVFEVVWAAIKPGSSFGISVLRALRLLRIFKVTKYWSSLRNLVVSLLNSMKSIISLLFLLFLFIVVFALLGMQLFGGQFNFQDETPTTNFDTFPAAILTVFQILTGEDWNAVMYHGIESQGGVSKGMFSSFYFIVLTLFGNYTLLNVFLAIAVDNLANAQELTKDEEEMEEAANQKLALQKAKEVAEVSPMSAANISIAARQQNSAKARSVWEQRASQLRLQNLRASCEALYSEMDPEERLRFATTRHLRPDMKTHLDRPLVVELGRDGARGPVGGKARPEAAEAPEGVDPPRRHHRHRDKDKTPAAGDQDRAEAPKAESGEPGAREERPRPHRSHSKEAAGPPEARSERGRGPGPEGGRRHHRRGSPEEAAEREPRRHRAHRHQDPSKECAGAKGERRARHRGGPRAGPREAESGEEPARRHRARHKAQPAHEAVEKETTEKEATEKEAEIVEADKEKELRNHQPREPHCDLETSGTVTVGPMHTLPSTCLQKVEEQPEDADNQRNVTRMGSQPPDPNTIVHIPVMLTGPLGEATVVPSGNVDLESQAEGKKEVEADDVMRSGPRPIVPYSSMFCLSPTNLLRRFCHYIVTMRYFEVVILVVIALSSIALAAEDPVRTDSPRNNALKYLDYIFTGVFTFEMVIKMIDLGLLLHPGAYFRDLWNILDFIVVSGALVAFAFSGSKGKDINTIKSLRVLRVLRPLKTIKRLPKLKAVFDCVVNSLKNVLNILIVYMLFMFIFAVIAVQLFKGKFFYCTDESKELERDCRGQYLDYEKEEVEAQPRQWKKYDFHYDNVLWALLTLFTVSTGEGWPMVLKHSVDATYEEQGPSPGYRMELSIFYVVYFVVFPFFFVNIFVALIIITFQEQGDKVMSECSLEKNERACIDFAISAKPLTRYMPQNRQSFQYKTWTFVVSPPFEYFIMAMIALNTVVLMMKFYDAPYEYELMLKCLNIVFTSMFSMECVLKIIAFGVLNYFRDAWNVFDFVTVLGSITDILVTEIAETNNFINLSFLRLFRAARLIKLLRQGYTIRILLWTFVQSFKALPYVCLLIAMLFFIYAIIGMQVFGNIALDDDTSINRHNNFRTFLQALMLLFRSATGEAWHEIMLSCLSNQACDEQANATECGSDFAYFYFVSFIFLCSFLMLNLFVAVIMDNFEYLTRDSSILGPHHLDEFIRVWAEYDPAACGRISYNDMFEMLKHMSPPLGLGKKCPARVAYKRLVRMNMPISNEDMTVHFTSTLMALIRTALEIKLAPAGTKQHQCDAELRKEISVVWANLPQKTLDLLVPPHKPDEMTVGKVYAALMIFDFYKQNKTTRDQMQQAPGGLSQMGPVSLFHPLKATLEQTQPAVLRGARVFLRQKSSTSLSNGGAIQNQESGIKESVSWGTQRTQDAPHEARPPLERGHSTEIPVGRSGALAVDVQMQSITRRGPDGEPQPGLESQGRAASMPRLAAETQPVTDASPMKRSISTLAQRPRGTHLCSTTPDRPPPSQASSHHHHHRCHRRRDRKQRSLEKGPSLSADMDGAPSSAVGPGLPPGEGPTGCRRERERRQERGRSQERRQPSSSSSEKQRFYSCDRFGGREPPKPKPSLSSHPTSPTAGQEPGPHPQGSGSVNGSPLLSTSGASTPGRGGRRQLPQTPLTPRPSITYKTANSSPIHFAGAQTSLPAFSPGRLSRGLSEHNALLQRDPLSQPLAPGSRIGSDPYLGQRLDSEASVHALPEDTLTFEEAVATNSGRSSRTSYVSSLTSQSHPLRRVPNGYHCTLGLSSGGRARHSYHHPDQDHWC
T3 sequence (Q02410 whole entry): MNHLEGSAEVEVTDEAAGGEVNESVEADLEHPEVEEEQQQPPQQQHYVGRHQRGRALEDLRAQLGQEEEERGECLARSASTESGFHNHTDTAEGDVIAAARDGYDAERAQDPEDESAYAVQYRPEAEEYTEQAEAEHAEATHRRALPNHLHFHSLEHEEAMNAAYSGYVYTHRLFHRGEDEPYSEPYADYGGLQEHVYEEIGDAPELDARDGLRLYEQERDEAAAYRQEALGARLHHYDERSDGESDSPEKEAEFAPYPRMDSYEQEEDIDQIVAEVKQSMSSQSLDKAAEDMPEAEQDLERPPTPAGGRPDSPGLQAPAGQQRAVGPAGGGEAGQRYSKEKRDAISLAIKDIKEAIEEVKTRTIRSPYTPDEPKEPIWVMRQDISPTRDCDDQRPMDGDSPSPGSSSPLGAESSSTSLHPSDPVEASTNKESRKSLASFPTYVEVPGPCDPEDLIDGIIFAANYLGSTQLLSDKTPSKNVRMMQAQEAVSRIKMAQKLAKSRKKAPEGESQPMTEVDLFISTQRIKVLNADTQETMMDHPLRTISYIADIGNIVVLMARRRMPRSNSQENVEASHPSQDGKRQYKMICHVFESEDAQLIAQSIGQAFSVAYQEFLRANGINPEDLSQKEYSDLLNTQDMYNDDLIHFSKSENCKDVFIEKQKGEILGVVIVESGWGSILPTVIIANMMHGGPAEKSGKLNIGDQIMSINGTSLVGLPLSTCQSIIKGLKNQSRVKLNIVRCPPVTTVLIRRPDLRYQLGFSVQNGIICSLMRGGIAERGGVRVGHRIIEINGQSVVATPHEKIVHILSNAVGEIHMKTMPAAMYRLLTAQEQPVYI
Chain of Luciferin 4-monooxygenase (P08659 whole entry): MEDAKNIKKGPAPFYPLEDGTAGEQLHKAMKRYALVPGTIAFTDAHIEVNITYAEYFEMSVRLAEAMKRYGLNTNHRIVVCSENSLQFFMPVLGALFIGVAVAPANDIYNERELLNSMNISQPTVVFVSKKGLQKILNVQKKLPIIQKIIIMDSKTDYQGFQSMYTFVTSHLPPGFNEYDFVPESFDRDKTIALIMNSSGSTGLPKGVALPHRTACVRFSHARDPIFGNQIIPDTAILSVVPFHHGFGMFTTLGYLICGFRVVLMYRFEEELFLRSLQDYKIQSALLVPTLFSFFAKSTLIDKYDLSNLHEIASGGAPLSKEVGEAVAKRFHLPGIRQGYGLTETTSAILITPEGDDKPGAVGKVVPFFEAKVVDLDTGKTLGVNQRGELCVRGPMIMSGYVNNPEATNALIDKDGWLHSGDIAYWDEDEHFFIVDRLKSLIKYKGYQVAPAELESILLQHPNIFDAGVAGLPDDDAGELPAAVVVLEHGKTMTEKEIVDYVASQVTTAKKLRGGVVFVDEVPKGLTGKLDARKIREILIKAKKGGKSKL
Chain of Cytochrome P450 2D6 (P10635 whole entry): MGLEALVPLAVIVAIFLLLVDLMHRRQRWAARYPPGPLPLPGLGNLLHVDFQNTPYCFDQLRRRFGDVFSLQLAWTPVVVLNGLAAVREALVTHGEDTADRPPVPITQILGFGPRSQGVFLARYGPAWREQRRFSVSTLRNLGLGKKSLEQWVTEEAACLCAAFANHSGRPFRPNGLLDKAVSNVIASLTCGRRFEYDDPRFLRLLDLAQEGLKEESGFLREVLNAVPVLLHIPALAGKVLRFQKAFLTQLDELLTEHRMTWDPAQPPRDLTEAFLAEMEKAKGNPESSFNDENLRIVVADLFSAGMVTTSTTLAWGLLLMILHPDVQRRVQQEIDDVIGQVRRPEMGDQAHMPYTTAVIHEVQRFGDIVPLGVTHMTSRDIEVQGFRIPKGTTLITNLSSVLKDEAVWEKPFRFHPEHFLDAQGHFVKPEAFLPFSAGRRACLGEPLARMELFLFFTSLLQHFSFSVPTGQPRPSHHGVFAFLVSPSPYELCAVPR

## Cc1cc2ncc(Cl)nc2cc1C
[1]
  IC50: > 79.4 µM (inactive)
[2]
  IC50: > 79.4 µM (inactive)
[3]
  IC50: > 79.4 µM (inactive)

## O=C(NCCO)c1cc(-c2cc(C(=O)NCCO)c3ccccc3n2)nc2ccccc12
[4]
  IC50: 6.83 µM (active)
[5]
  IC50: > 50 µM (inactive)

## Cc1cc(O)ccc1C1(c2ccc(O)cc2C)OC(=O)c2ccccc21
[6]
  IC50: 3.46 µM (active)

## COc1ccc(/C=C/C(=O)NC(=S)NNC(=O)c2cnccn2)cc1
[7]
  EC50: 4.07 µM (active)
[8]
  EC50: 0.955 µM (active)
[9]
  EC50: 15.2 µM (active)
[10]
  EC50: 6.88 µM (active)
[11]
  EC50: 2.23 µM (active)
[12]
  EC50: > 80 µM (inactive)
[13]
  AC50: 1.95 µM (active)
[14]
  AC50: 15.4 µM (active)
[15]
  AC50: 42.4 µM (active)
[16]
  AC50: 2.05 µM (active)

## CCNC1=NN=C(c2ccc(C)cc2)CS1
[17]
  EC50: 1.03 µM (active)
[18]
  EC50: > 50 µM (not active)
[11]
  EC50: 51.6 µM (inactive)
[12]
  EC50: 63.1 µM (inactive)
[19]
  AC50: 14.1 µM (inconclusive)

## c1ccc(Cn2c(-c3ccccc3)nc3nc4ccccc4nc32)cc1
[20]
  EC50: > 71.5 µM (inactive)

## Nc1ccc(Br)cc1-c1nc2ccccc2nc1O
[21]
  IC50: < 0.25 µM (active)
[22]
  IC50: < 0.25 µM (active)
[23]
  AC50: 0.63 µM (active)

## CC(C)(C)c1ccc(CN2C(=O)CN=C(c3ccccc3)c3ccccc32)cc1
[6]
  IC50: 3.35 µM (active)

## O=C(CCCCCn1c(=O)[nH]c2ccccc2c1=O)NCCc1c[nH]c2ccccc12
[24]
  IC50: > 20 µM (inactive)
[25]
  IC50: 19.3 µM (active)
[26]
  IC50: 18.1 µM (active)

## Cc1onc(-c2ccccc2)c1C(=O)Nc1cccc2nsnc12
[24]
  IC50: > 20 µM (inactive)
[25]
  IC50: 15.6 µM (active)
[26]
  IC50: > 20 µM (inactive)

## CC(=O)N(C)c1ccc(C(O)(C(F)(F)F)C(F)(F)F)cc1
[20]
  EC50: > 71.5 µM (inactive)

## COc1ccc(OCC(=O)N/N=C/c2ccc(OC)c(OC)c2C(=O)O)cc1
[1]
  IC50: > 79.4 µM (inactive)
[2]
  IC50: > 79.4 µM (inactive)
[3]
  IC50: > 79.4 µM (inactive)
